Assay results reported in the PolyMetriX glass transition set.
± gives the standard deviation of the reports.

| SMILES | glass transition temperature [°C] |
| --- | --- |
| *O[Si](C)(C)c1ccc2cc([Si](*)(C)C)ccc2c1 (repeat unit) | 29.00 |
| *CC(*)(C)C(=O)OCCCCCCCCCCCOc1ccc(/C=N/c2ccc(C#N)cc2)cc1 (repeat unit) | 23.00 |
| *CCCCC[Si](*)(C)c1ccccc1 (repeat unit) | -10.40 |
| *c1ccc(-c2ccc([Si](CCCC)(CCCC)[Si](*)(CCCC)CCCC)s2)s1 (repeat unit) | -20.00 |
| *CC(*)c1ccccc1F (repeat unit) | 160.50 |
| *OC1C(CO)OC(*)C(NC(C)=O)C1O (repeat unit) | 154.60 |
| *C/C=C/C(C)S(*)(=O)=O (repeat unit) | 71.00 |
| *c1cccc(P(=O)(c2ccccc2)c2cccc(N3C(=O)c4ccc(NC(=O)OCCOc5c(Br)cc(C(C)(C)c6cc(Br)c(OCCOC(=O)Nc7ccc8c(c7)C(=O)N(*)C8=O)c(Br)c6)cc5Br)cc4C3=O)c2)c1 (repeat unit) | 201.00 |
| *OC(CCl)C(*)CCl (repeat unit) | 95.00 |
| *Oc1ccc(C2(c3ccc(OC(*)=O)cc3)CCCCCC2)cc1 (repeat unit) | 155.00 |
| *CC(*)OCCCCCCCCCCCOc1ccc(C(=O)Oc2ccc(OCC)cc2)cc1 (repeat unit) | 37.00 |
| *C(F)(F)C(*)(F)c1c(F)c(F)c(F)c(F)c1F (repeat unit) | 194.00 |
| */C=C/c1cc(OCCCCCCCC)c(/C=C/c2ccc(*)c3nsnc23)cc1OCCCCCCCC (repeat unit) | 153.00 |
| */C(C)=C(/*)CCCCCCC (repeat unit) | 160.00 |
| *CCCCCOC(=O)c1ccccc1C(=O)[O][Pb][O]C(=O)c1ccccc1C(=O)OCCCCCOC(=O)Nc1ccc(C)c(NC(=O)O*)c1 (repeat unit) | -11.30 |
| *CC(*)CCI (repeat unit) | 70.00 |
| *Oc1c(Br)cc(*)cc1Br (repeat unit) | 196.00 |
| *CCOP(=O)(/N=N/c1ccc(CCOC(=O)c2cc(C(=O)OCCc3ccc(/N=N/P(=O)(O*)OC)cc3)cc(C(C)(C)C)c2)cc1)OC (repeat unit) | 84.00 |
| *CC(*)(C)C(=O)OCc1ccc2c(c1)c1ccccc1n2CC (repeat unit) | 136.00 |
| *OC(=O)C(C)NC(=O)CCCCCC(=O)NC(C)C(=O)OC1COC2C(*)COC12 (repeat unit) | 45.00 |
| *CC(*)(F)C(=O)OCCC(F)(F)C(F)(F)C(F)(F)C(F)(F)C(F)(F)C(F)(F)F (repeat unit) | 53.00 |
| *CCc1ccc(*)c(Br)c1 (repeat unit) | 80.00 |
| *CCCCCCCCNC(=O)c1cccc(C(=O)N*)c1 (repeat unit) | 110.00 |
| *CC(C)C(*)(C)C (repeat unit) | 37.00 |
| *CCCS(=O)(=O)c1ccc(/N=N/c2ccc(N(CCCC)CC(=O)O*)cc2)cc1 (repeat unit) | 92.40 |
| *CC(*)(C)C(=O)OCC(O)C1CC(C)(c2ccccc2)C1 (repeat unit) | 105.00 |

Further lines, results first:

| glass transition temperature [°C] | SMILES |
| --- | --- |
| 218.00 | *Oc1ccc(NC(=O)c2cccc(C(=O)Nc3ccc(OC4COC5C(*)COC45)cc3)c2)cc1 (repeat unit) |
| 181.00 | *Oc1ccc(C(C)(C)c2ccc(Oc3ccc(C(=O)c4ccc(C(c5ccc(C(=O)c6ccc(*)cc6)cc5)(C(F)(F)F)C(F)(F)F)cc4)cc3)cc2)cc1 (repeat unit) |
| 268.00 | *Oc1cc(C(C)(C)C)c(Oc2ccc(C(=O)Nc3ccc(C(c4ccc(NC(=O)c5ccc(*)cc5)cc4)(C(F)(F)F)C(F)(F)F)cc3)cc2)cc1C(C)(C)C (repeat unit) |
| 220.00 | *c1ccc(Oc2ccc(C(C)(C)c3ccc(Oc4ccc(-c5nc(-c6ccccn6)nnc5*)cc4)cc3)cc2)cc1 (repeat unit) |
| 140.00 | *c1ccc(OC(=O)CCCCCCCCCCCCCCCCCCCCC(=O)Oc2ccc(N3C(=O)c4ccc(-c5ccc6c(c5)C(=O)N(*)C6=O)cc4C3=O)cc2)cc1 (repeat unit) |
| 223.00 | *Oc1ccc(C2(c3ccc(Oc4c(F)c(F)c(C(=O)c5c(F)c(F)c(*)c(F)c5F)c(F)c4F)cc3)c3ccccc3-c3ccccc32)cc1 (repeat unit) |
| 149.00 | *Oc1ccc(C(C)(C)c2cccc(C(C)(C)c3ccc(Oc4ccc(C(=O)Nc5ccc(Cc6ccc(NC(=O)c7ccc(*)cc7)cc6)cc5)cc4)cc3)c2)cc1 (repeat unit) |
| 275.00 | *C(=O)Nc1ccc(Oc2ccc(Oc3ccc(NC(=O)c4ccc5c(c4)C(=O)N(c4ccc(Oc6ccc(C7(c8ccc(Oc9ccc(N%10C(=O)c%11ccc(*)cc%11C%10=O)cc9)cc8)CC8CC7C7CCCC87)cc6)cc4)C5=O)cc3)c(C(C)(C)C)c2)cc1 (repeat unit) |
| 234.00 | *c1cc(C(c2ccc(OCCN(c3ccccc3)c3ccc(/C=C/C4=CC(=C(/C#N)S(C)(=O)=O)/CC(C)(C)C4)cc3)c(N3C(=O)c4ccc(Oc5ccc6c(c5)C(=O)N(*)C6=O)cc4C3=O)c2)(C(F)(F)F)C(F)(F)F)ccc1OCCN(c1ccccc1)c1ccc(/C=C/C2=CC(=C(/C#N)S(C)(=O)=O)/CC(C)(C)C2)cc1 (repeat unit) |
| 71.00 | *C#Cc1ccccc1C#C[SiH](*)c1ccccc1 (repeat unit) |
| 277.00 | *c1ccc(Cc2ccc(N3C(=O)c4ccc(Oc5ccc(Oc6ccc7c(c6)C(=O)N(*)C7=O)cc5)cc4C3=O)c(C)c2C)c(C)c1C (repeat unit) |
| 108.00 | *Oc1ccc(OC(=O)c2ccc(C(*)=O)cc2Oc2ccc(Br)cc2)cc1 (repeat unit) |
| 201.00 | *c1ccc(Oc2ccc(S(=O)(=O)c3ccc(Oc4ccc(N5C(=O)c6ccc(Oc7ccc(Oc8ccc9c(c8)C(=O)N(*)C9=O)cc7)cc6C5=O)cc4)cc3)cc2)cc1 (repeat unit) |
| 33.00 | *Oc1ccc(CC(NC(=O)CCc2ccc(OC(=O)CCCCCCCCC(*)=O)cc2)C(=O)OCC(C)C)cc1 (repeat unit) |
| 249.50 ± 20 | *C(=O)c1ccc2c(c1)C(=O)N(c1cccc(Cc3cccc(N4C(=O)c5ccc(*)cc5C4=O)c3)c1)C2=O (repeat unit) |
| 118.00 | *Oc1ccc(Oc2ccc(OC(*)=O)cc2)cc1 (repeat unit) |
| 116.00 | *CC(*)(C)C(=O)OCCN(CC)c1ccc(/N=N/c2ccc([N+](=O)[O-])c3ccccc23)cc1 (repeat unit) |
| 203.00 | *Oc1ccc(/N=N/c2c(C)cc(Cc3cc(C)c(/N=N/c4ccc(OC(=O)c5ccc(C(*)=O)cc5)cc4)c(C)c3[N+](=O)[O-])c([N+](=O)[O-])c2C)cc1 (repeat unit) |

| glass transition temperature [°C] | SMILES |
| --- | --- |
| 290.00 | *Nc1ccc(-c2c(-c3ccccc3)cc(-c3ccc(-c4cc(-c5ccccc5)c(-c5ccc(NC(=O)c6ccc(C(*)=O)cc6)cc5)c(-c5ccccc5)c4)cc3)cc2-c2ccccc2)cc1 (repeat unit) |
| 280.00 | *c1cc(C)c(-c2c(C)cc(N3C(=O)c4ccc(-c5ccc6c(c5)C(=O)N(*)C6=O)cc4C3=O)cc2C)c(C)c1 (repeat unit) |
| 380.50 | *c1ccc(Oc2ccc(-c3cc(-c4ccccc4)c4cc5c(-c6ccccc6)cc(*)nc5cc4n3)cc2)cc1 (repeat unit) |
| 80.00 | *CC(*)(C)C(=O)OC(COc1cccc2ccccc12)COc1cccc2ccccc12 (repeat unit) |
| 345.00 | *c1ccc(C(c2ccc(-c3nc4ccc(-c5ccc6nc(*)oc6c5)cc4o3)cc2)(C(F)(F)F)C(F)(F)F)cc1 (repeat unit) |
| 24.00 | *CC(*)(C)C(=O)OCCCCCCCCCCOc1ccc2cc(C(=O)Oc3ccccc3)ccc2c1 (repeat unit) |
| 299.00 | *c1ccc2c(c1)C(=O)N(c1ccc(C3(c4ccc(N5C(=O)c6ccc(C(*)(C(F)(F)F)C(F)(F)F)cc6C5=O)c(C(C)C)c4)c4ccccc4-c4ccccc43)cc1C(C)C)C2=O (repeat unit) |
| 37.00 | *CC(O)COC(=O)CCCCC(=O)OCC(O)COc1ccc(C(=O)Oc2ccc(O*)cc2)cc1 (repeat unit) |
| 40.00 | *CC(*)(C)C(=O)OCCCCCC(=O)Oc1ccc(OC(=O)c2ccc(OC)cc2)cc1 (repeat unit) |
| 376.00 | *Oc1ccccc1-c1ccccc1Oc1ccc2c(=O)n3c4cc(-c5ccc6c(c5)nc5c7ccc(*)c8cccc(c(=O)n65)c87)ccc4nc3c3cccc1c23 (repeat unit) |
| 266.00 | *c1cc(C(c2ccc(O)c(N3C(=O)c4ccc(Oc5ccc6c(c5)C(=O)N(*)C6=O)cc4C3=O)c2)(C(F)(F)F)C(F)(F)F)ccc1O (repeat unit) |
| 235.00 | *c1cc(N2C(=O)c3ccc(Oc4ccc5ccc(Oc6ccc7c(c6)C(=O)N(*)C7=O)cc5c4)cc3C2=O)cc(C(F)(F)F)c1 (repeat unit) |
| 259.00 | *c1ccc(Oc2ccc(-c3ccc(Oc4ccc(N5C(=O)c6cccc(Oc7c(C)cc(Cc8cc(C)c(Oc9cccc%10c9C(=O)N(*)C%10=O)c(C)c8)cc7C)c6C5=O)cc4)cc3)cc2)cc1 (repeat unit) |
| 120.00 | *Oc1ccc(S(=O)(=O)N(C)CCCCN(C)S(=O)(=O)c2ccc(Oc3ccc(C(C)(C)c4ccc(*)cc4)cc3)cc2)cc1 (repeat unit) |
| 158.00 | *Oc1ccc(C2(c3ccc(OC(=O)CCCCCCC(*)=O)cc3)c3ccccc3-c3ccccc32)cc1 (repeat unit) |
| 214.00 | *C(=O)Nc1cccc(Oc2cccc(Oc3cccc(NC(=O)c4ccc5c(c4)C(=O)N(c4cccc(Oc6cccc(Oc7cccc(N8C(=O)c9ccc(*)cc9C8=O)c7)c6C#N)c4)C5=O)c3)c2C#N)c1 (repeat unit) |
| 205.00 | *Oc1ccc(NC(=O)/C=C/c2ccc(/C=C/C(=O)Nc3ccc(*)cc3)cc2)cc1 (repeat unit) |
| 208.00 | *CC(c1ccccc1)C1C(=O)N(c2ccc(NC(=O)OCC3CCCN3c3ccc([N+](=O)[O-])cc3)cc2)C(=O)C1* (repeat unit) |
